Experimental data as given in paper PMC12583704 (Signal Transduction and Targeted Therapy, 2025).

Experiment: Phase 1 study NCT03594422: adverse events graded by NCI CTCAE v4.03
Type: in vivo, human
Description: Part 1 was a dose-escalation study to determine the recommended phase 2 dose (RP2D) in solid tumors. […] The initial design was a 3 + 3 dose escalation from 20 mg, but the protocol was amended to randomly enroll and assign patients to starting doses of 30, 40, and 50 mg on the basis of safety data acquired in the CML trial.[20] […] An interactive web response system was used for randomization. Part 2 was a nonrandomized study focusing on patients with SDH-deficient GISTs. […] On the basis of preliminary data from adult patients, adolescent patients with advanced wild-type GISTs were also included in Part 2. The dosage for adolescents was adjusted according to their body weights.
AEs were evaluated at each follow-up visit: on Days 1, 8, 15, and 22 during Cycles 1 and 2; and on Days 1 and 15 in Cycle 3 and all subsequent cycles, up to 30 days after the final dose. All AEs were graded according to the National Cancer Institute Common Terminology Criteria for Adverse Events v4.03. Clinical laboratory investigations for routine blood examinations and serum chemistry parameters were performed during every cycle (on Day 1), during Cycles 1 and 2 (on Days 8, 15, and 22), and 30 days after the last dose of treatment. Urinalysis, coagulation, cardiac troponin I/T, lipase, amylase, and electrocardiographic evaluations were conducted at baseline; during Cycles 1 and 2 (on Days 1 and 15); during Cycles 3, 5, 7, and 9; every three cycles after Cycle 9 (on Day 1); and 14 days after the last dose of treatment. All patients underwent tumor imaging for response assessment via computed tomography or magnetic resonance imaging at screening and every two cycles (8 weeks) until progression or discontinuation. Target and nontarget lesions were assessed per the Response Evaluation Criteria in Solid Tumors version 1.1 (RECIST v1.1).

For `Cc1ccc(C(=O)Nc2ccc(CN3CCN(C)CC3)c(C(F)(F)F)c2)cc1C#Cc1cnc2[nH]ncc2c1` [Olverembatinib, 3-[(1H-pyrazolo[3,4-b]pyridin-5-yl)ethynyl]-4-methyl-N-{4-[(4-methylpiperazin-1-yl)methyl]-3-(trifluoromethyl)phenyl]benzamide], the “TRAE: AST increased” value (30 mg (n = 15), Any grade) was 5 (33.3) n (%), the “TRAE: Anemia” value (30 mg (n = 15), Any grade) was 1 (6.7) n (%) and the “TRAE: Blood creatinine increased” value (30 mg (n = 15), Any grade) was 3 (20.0) n (%). The “TRAE: Constipation” value (30 mg (n = 15), Any grade) was 4 (26.7) n (%), the “TRAE: Fatigue” value (30 mg (n = 15), Any grade) was 4 (26.7) n (%) and the “TRAE: Hypoalbuminemia” value (30 mg (n = 15), Any grade) was 4 (26.7) n (%). The “TRAE: Leukocyte count increased” value (30 mg (n = 15), Any grade) was 6 (40.0) n (%), the “TRAE: Melanocytic nevus” value (30 mg (n = 15), Any grade) was 3 (20.0) n (%) and the “TRAE: Neutrophil count increased” value (30 mg (n = 15), Any grade) was 6 (40.0) n (%). The “TRAE: Platelet count increased” value (30 mg (n = 15), Any grade) was 1 (6.7) n (%), the “TRAE: Pyrexia” value (30 mg (n = 15), Any grade) was 1 (6.7) n (%) and the “TEAE: Abdominal pain” value (30 mg (n = 15), Grade 3-5) was 1 (6.7) n (%). The “TEAE: Alanine aminotransferase increased” value (30 mg (n = 15), Grade 3-5) was 0 n (%), the “TEAE: Anemia” value (30 mg (n = 15), Grade 3-5) was 1 (6.7) n (%) and the “TEAE: Aspartate aminotransferase increased” value (30 mg (n = 15), Grade 3-5) was 0 n (%). For the same compound, the “TEAE: C-reactive protein increased” value (30 mg (n = 15), Grade 3-5) was 0 n (%), the “TEAE: Constipation” value (30 mg (n = 15), Grade 3-5) was 0 n (%) and the “TEAE: Fatigue” value (30 mg (n = 15), Grade 3-5) was 0 n (%). The “TEAE: Hyperuricemia” value (30 mg (n = 15), Grade 3-5) was 1 (6.7) n (%), the “TEAE: Hypoalbuminemia” value (30 mg (n = 15), Grade 3-5) was 0 n (%) and the “TEAE: Leukocyte count increased” value (30 mg (n = 15), Grade 3-5) was 0 n (%). For the same compound, the “TEAE: Melanocytic nevus” value (30 mg (n = 15), Grade 3-5) was 0 n (%), the “TEAE: Neutrophil count increased” value (30 mg (n = 15), Grade 3-5) was 0 n (%) and the “TEAE: Pyrexia” value (30 mg (n = 15), Grade 3-5) was 0 n (%). For the same compound, the TEAEs (30 mg (n = 15), Grade 3-5) was 5 (33.3) n (%), the “TRAE: ALT increased” value (30 mg (n = 15), Grade 3-5) was 0 n (%) and the “TRAE: AST increased” value (30 mg (n = 15), Grade 3-5) was 0 n (%). The “TRAE: Anemia” value (30 mg (n = 15), Grade 3-5) was 0 n (%), the “TRAE: Blood creatinine increased” value (30 mg (n = 15), Grade 3-5) was 0 n (%) and the “TRAE: Constipation” value (30 mg (n = 15), Grade 3-5) was 0 n (%). The “TRAE: Fatigue” value (30 mg (n = 15), Grade 3-5) was 0 n (%), the “TRAE: Hypoalbuminemia” value (30 mg (n = 15), Grade 3-5) was 0 n (%) and the “TRAE: Leukocyte count increased” value (30 mg (n = 15), Grade 3-5) was 0 n (%). The “TRAE: Melanocytic nevus” value (30 mg (n = 15), Grade 3-5) was 0 n (%), the “TRAE: Neutrophil count increased” value (30 mg (n = 15), Grade 3-5) was 0 n (%) and the “TRAE: Platelet count increased” value (30 mg (n = 15), Grade 3-5) was 0 n (%). The “TRAE: Pyrexia” value (30 mg (n = 15), Grade 3-5) was 0 n (%), the “TEAE: Abdominal pain” value (40 mg (n = 32), Any grade) was 7 (21.9) n (%) and the “TEAE: Alanine aminotransferase increased” value (40 mg (n = 32), Any grade) was 13 (40.6) n (%). For the same compound, the “TEAE: Anemia” value (40 mg (n = 32), Any grade) was 14 (43.8) n (%), the “TEAE: Aspartate aminotransferase increased” value (40 mg (n = 32), Any grade) was 14 (43.8) n (%) and the “TEAE: C-reactive protein increased” value (40 mg (n = 32), Any grade) was 8 (25.0) n (%). The “TEAE: Constipation” value (40 mg (n = 32), Any grade) was 13 (40.6) n (%), the “TEAE: Fatigue” value (40 mg (n = 32), Any grade) was 11 (34.4) n (%) and the “TEAE: Hyperuricemia” value (40 mg (n = 32), Any grade) was 17 (53.1) n (%). For the same compound, the “TEAE: Hypoalbuminemia” value (40 mg (n = 32), Any grade) was 5 (15.6) n (%), the “TEAE: Leukocyte count increased” value (40 mg (n = 32), Any grade) was 15 (46.9) n (%) and the “TEAE: Melanocytic nevus” value (40 mg (n = 32), Any grade) was 10 (31.3) n (%). The “TEAE: Neutrophil count increased” value (40 mg (n = 32), Any grade) was 12 (37.5) n (%), the “TEAE: Pyrexia” value (40 mg (n = 32), Any grade) was 17 (53.1) n (%) and the TEAEs (40 mg (n = 32), Any grade) was 32 (100.0) n (%). For the same compound, the “TRAE: ALT increased” value (40 mg (n = 32), Any grade) was 11 (34.4) n (%), the “TRAE: AST increased” value (40 mg (n = 32), Any grade) was 12 (37.5) n (%) and the “TRAE: Anemia” value (40 mg (n = 32), Any grade) was 4 (12.5) n (%). For the same compound, the “TRAE: Blood creatinine increased” value (40 mg (n = 32), Any grade) was 5 (15.6) n (%), the “TRAE: Constipation” value (40 mg (n = 32), Any grade) was 13 (40.6) n (%) and the “TRAE: Fatigue” value (40 mg (n = 32), Any grade) was 9 (28.1) n (%). The “TRAE: Hypoalbuminemia” value (40 mg (n = 32), Any grade) was 3 (9.4) n (%), the “TRAE: Leukocyte count increased” value (40 mg (n = 32), Any grade) was 12 (37.5) n (%) and the “TRAE: Melanocytic nevus” value (40 mg (n = 32), Any grade) was 8 (25.0) n (%). The “TRAE: Neutrophil count increased” value (40 mg (n = 32), Any grade) was 9 (28.1) n (%), the “TRAE: Platelet count increased” value (40 mg (n = 32), Any grade) was 4 (12.5) n (%) and the “TRAE: Pyrexia” value (40 mg (n = 32), Any grade) was 14 (43.8) n (%). For the same compound, the “TEAE: Abdominal pain” value (40 mg (n = 32), Grade 3-5) was 0 n (%), the “TEAE: Alanine aminotransferase increased” value (40 mg (n = 32), Grade 3-5) was 0 n (%) and the “TEAE: Anemia” value (40 mg (n = 32), Grade 3-5) was 2 (6.3) n (%). For the same compound, the “TEAE: Aspartate aminotransferase increased” value (40 mg (n = 32), Grade 3-5) was 0 n (%) and the “TEAE: C-reactive protein increased” value (40 mg (n = 32), Grade 3-5) was 0 n (%).
